The subject of one data set is diphtheria toxoid (DT). On the set-up: species or system mice. To be noted: mouse, in vivo.
For a further data set, the system named is rubella. As to the kind of experiment: Measles-rubella vaccine with oral adjuvant; antibody production in the blood, rubella. The class given is in vivo, mice. To be noted: vaccine twice at 3-week intervals, adjuvant oral at first inoculation only, vaccine alone: 0.09. As for the experimental part: (§1) A measles-rubella vaccine preparation was prepared to contain virus particles of each vaccine of which amount corresponded to 7 µg in 20 µL of the preparation. 9,12,13-Trihydroxy-10E-octadecenoic acid dissolved in PBS and sterilized by filter was prepared at a concentration of 2.5 µg in 0.5 mL. A stabilizer (0.2% porcine gelatin, 0.1% sodium glutamate, 5% lactose) was added to these preparations. The resulting mixtures were dispensed into containers, which were used as measles-rubella vaccine combined vaccine-hydroxy unsaturated fatty acid nasal drop or oral preparations. Such preparations were stored at a temperature of not more than 10°C in a cool and dark place.
(§2) The measles-rubella vaccine as prepared above was administered into mice twice at 3-week intervals, and then 9,12,13-trihydroxy-10E-octadecenoic acid was orally administered only at or around the time of the first inoculation. Then, the antibody production in the blood was evaluated.

The test system of data set [1] is anti-influenza virus IgA antibody. The data set can be described thus: […]; nasal irrigation liquid IgA by ELISA. In kind it is in vivo, BALB/c mice. To be noted: secondary response, 50 µg/kg oral over 1-5 days, versus no adjuvant (only a low level), Figure 4. (In general: An ELISA detects its analyte on a solid surface through an enzyme-linked reagent.)
The test system of data set [2] is antibodies (IgG and IgA) specific to the adjuvant and IgE. As to the kind of experiment: Detection of antibodies specific to the adjuvant and IgE in nasal irrigation liquid (ELISA). To be noted: plate coated with fatty acid-BSA complex, absorbance versus control mice without administration. The class given is in vivo. The method, then: Subsequently, detection was carried out for the presence of antibodies (IgG and IgA) specific to the adjuvant and IgE. A linked complex between the hydroxy unsaturated-fatty acid and bovine serum albumin as a carrier protein was prepared. Each well of the 96-well EIA plate was first coated with a 100 µl aliquot of solution containing the complex (1 µg/ml). Subsequently, each well of the plate was coated with 300 µl aliquot of a blocking solution (PBS containing 5% skimmed milk) for 1 hour to avoid non-specific reactions. Then, 100 µl samples (nasal irrigation liquid) diluted to various concentrations were added into the respective wells for antigen-antibody reaction and the reaction was continued for 1 hour. The plate was then washed 3 times with PBS-0.05% Tween-20, and then 100 µl of peroxidase-conjugated anti-mouse IgG, IgA or IgE antibody (1:1000) as a secondary antibody was added thereto and the reaction was continued for one hour. After the plate was washed 3 times with PBS-Tween-20, 100 µl of a substrate solution (0.1 M citrate buffer (pH 4) containing 0.003% hydrogen peroxide and ABTS of 0.3 mg/ml) was added thereto. The plate was incubated for 15 minutes for color development. The color (O.D. at 405 nm) was assayed in a micro-plate reader.

Data set [3] relates to anti-influenza virus IgA antibody. The class given is in vivo, BALB/c mice. To be noted: 50 µg/kg oral for 5 days, serum after 2 weeks, versus vaccine with aqueous solvent (only a low level), Figure 3.
A further data set concerns pertussis toxin (PT). On the set-up: species or system mice. To be noted: mouse, in vivo.
The next data set has as its system tetanus toxoid (TT). On the set-up: species or system mice. The following applies: mouse, in vivo.
A further data set concerns measles. The data set can be described thus: Measles-rubella vaccine with oral adjuvant; antibody production in the blood, measles. The class given is in vivo, mice. The following applies: vaccine twice at 3-week intervals, adjuvant oral at first inoculation only, vaccine alone: 0.14. As for the experimental part: as §1, §2
In another data set the test system is Mycoplasma. The class given is in vivo, mice. The following applies: vaccine intranasal 3 times at 2-week intervals, adjuvant oral at first inoculation only.
The test system of data set [4] is anti-influenza virus IgG antibody. The class given is in vivo, BALB/c mice. To be noted: secondary response.
Data set [5] relates to anti-influenza virus IgA antibody. The class given is in vivo, BALB/c mice.
A further data set relates to rotavirus vaccine. The data set can be described thus: Rotavirus vaccine with oral adjuvant; antibody production in the blood. The following applies: adjuvant oral at first inoculation only. In kind it is in vivo, mice. The method, then: A rotavirus vaccine preparation was prepared to contain virus particles of which amount corresponded to 3.3 µg in 20 µL. The methyl ester derivative (2) (methyl 9,12,13-trihydroxy-10E-octadecenoate) as used in Example 5 was dissolved in PBS and prepared at a concentration of 10 µg in 0.5 mL. The resulting preparation was sterilized by filter and dispensed into containers, which were used as rotavirus vaccine-hydroxy unsaturated fatty acid oral preparations or nasal drops. Such preparations were stored at a temperature of not more than 10°C in a cool and dark place.
The rotavirus vaccine as prepared above was administered into mice twice at 3-week intervals, and then the methyl ester derivative was orally administered only at or around the time of the first inoculation. Then, the antibody production in the blood was evaluated.

Like-named read-outs stand apart in the source and are kept apart here.

Take `CCCCCC(O)C(O)/C=C/C(O)CCCCCCCC(=O)O` (stereo not drawn) [9,12,13-trihydroxy-10E-octadecenoic acid]: in the data set with diphtheria toxoid (DT), the “level of anti-DT-IgA antibody” value came out at 11 ELISA units and the “level of anti-DT-IgG antibody” value came to 70 ELISA units. Moreover, the “ELISA titer of antibody produced for rubella” value with rubella was found to be 0.29. Besides, the “titer of anti-influenza virus IgA antibody in the nasal irrigation liquids” value in data set [1] is recorded as “highly elevated”. The “antibodies (IgG, IgA) specific to the adjuvant and IgE” value in data set [2] is “neither antibody (IgG, IgA) specific to the adjuvant nor IgE was detectable”. The “titer of anti-influenza virus IgA antibody in the serum” value in [3] is reported as “highly elevated”. Also, in the data set with pertussis toxin (PT), the “level of anti-PT-IgA antibody” value was 14 ELISA units and the “level of anti-PT-IgG antibody” value amounted to 442 ELISA units. Besides, in the data set with tetanus toxoid (TT), the “level of anti-TT-IgA antibody” value is given as 11 ELISA units and the “level of anti-TT-IgG antibody” value is 75 ELISA units. Besides, the “ELISA titer of antibody produced for measles” value in the data set on measles came out at 0.30. In addition, the “average number of lesions” value with Mycoplasma (vaccine alone: 302) is on record as 178. For the same compound, the “mice in which lesions associated with Mycoplasma infection were found” value in the data set with Mycoplasma (vaccine alone: all of 10) is 3 of 10. Besides, the “titer of anti-influenza virus IgG antibody in the serum” value in data set [4] (compared with HA vaccine singly used, Figure 5) is “increased”. Further, in data set [4] (vaccine alone: only a low level, Figure 6), the “titer of anti-influenza virus IgG antibody in the lung irrigation liquid” value was “significantly elevated”. Moreover, in data set [5] (mouse, in vivo), the “adjuvant activity compared with the same dose of CTB (positive control), nasal irrigation liquid IgA” value was “comparable” and the “adjuvant activity compared with the same dose of CTB (positive control), serum IgA” value was “comparable”. The “titer of anti-influenza virus IgA antibody in the serum” value in data set [5] (secondary response, adjuvant 1 µg per mouse oral, vaccine subcutaneous, compared with HA vaccine singly used, Figure 7) was “significantly increased”. The “titer of anti-influenza virus IgA antibody in the nasal irrigation liquid” value in [5] (secondary response, adjuvant 1 µg per mouse oral, vaccine subcutaneous, vaccine alone: only a low level, Figure 8) is “significantly elevated”.

As to `CCCCCC(O)C(O)/C=C/C(O)CCCCCCCC(=O)OC` (stereo not drawn) [methyl ester derivative, methyl 9,12,13-trihydroxy-10E-octadecenoate], the “ELISA titer of antibody produced” value in the data set with rotavirus vaccine (inoculation of nasal vaccine drop twice at 3-week intervals, vaccine alone: 0.089) was found to be 0.38; in the data set on rotavirus vaccine (vaccine inoculated orally twice at 3-week intervals, control without adjuvant: 0.018) it was 0.27.

The record behind these values is EP1195162A1 (priority 1999, dated 2000).
